In patent US6506552B2, “Amino acid-trehalose composition” (Meiji Dairies Corporation, priority 1998, dated 2003):

Assay: Forced swimming of mice in a running water pool after oral administration; blood lactic acid, blood sugar and free fatty acid levels
Type: in vivo, mice (male; ddY)
Protocol: This experiment was carried out according to the method disclosed in Jpn. J. Phys. Fitness Sports Med., 1995, 44:225-238. More specifically, mice (male; ddY) (6-week-old; 5 animals per group) were fasted at room temperature for 16 hours, followed by oral administration of a 1.8% by weight aqueous solution containing the composition VAAM or HVAAM as set forth in Table 1 or trehalose; an aqueous solution containing 1.8% by weight of VAAM and 2% by weight of trehalose; or an aqueous solution containing 1.8% by weight of VAAM analogue as set forth in Table 1 and 2% by weight of trehalose in an amount of 37.5 μl/g body weight and thereafter giving the mice a rest at room temperature for 30 minutes. Then the mice were forced to swim in a running water pool (a water tank having a diameter of 32 cm and a depth of 30 cm, which was filled with water maintained at 35° C. and in which the water was circulated at a rate of 8 m/min using a circulator) for 30 minutes. After forcing the mice to swim, they were inspected for the lactic acid level in the blood, the blood sugar (glucose) level and the free fatty acid level in the blood.
The lactic acid level in the blood was determined using a clinical reagent available from Sigma Company, by measuring absorbance at 340 nm due to NADH, each molecule of which was formed when lactic acid was converted into pyruvic acid because of the action of lactic acid dehydrogenase. The free fatty acid level in the serum was determined by centrifuging the collected blood and then quantitatively analyzing the fatty acids present in the supernatant. More specifically, the hydrogen peroxide formed by the action of acyl-CoA synthetic enzyme and acyl-CoA oxidase was reacted with a peroxidase, followed by determination of the absorbance at 550 nm due to the stained 3-methyl-N-ethyl-N-(2-hydroxyethyl)aniline and 4-aminoantipyrine to thus determine the free fatty acid level.

## OC[C@H]1O[C@H](O[C@H]2O[C@H](CO)[C@@H](O)[C@H](O)[C@H]2O)[C@H](O)[C@@H](O)[C@@H]1O [Tre, α, α-trehalose]
Blood glucose, mice fasted 16 h, oral 37.5 μl/g body weight, 30 min rest, after 30 min forced swimming
  Blood Sugar Level: 83.14 mg/dL
blood, mice fasted 16 h, oral 37.5 μl/g body weight, 30 min rest, after 30 min forced swimming
  Lactic Acid Level: 46.69 mg/dL
Free fatty acid in serum, mice fasted 16 h, oral 37.5 μl/g body weight, 30 min rest, after 30 min forced swimming
  NEFA: 0.97 mEq/l
mice, after 30 min swimming, FIG. 3, p<0.05
  free fatty acid level in the blood compared with the group to which 1.8% VAAM was administered: significantly higher
mice, after load of swimming over 30 minutes, FIG. 1
  lactic acid level in the blood compared with the group to which VAAM was administered: did not show any significant difference
